Assay results reported in PubChem BioAssay (NCI).
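How tested: cells in 96-well plates exposed to compound for 48 hours at five concentrations. Definition used: TGI = concentration required for complete inhibition of growth.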

Experiments:
Experiment in all cases: NCI tumour cell line growth inhibition, 48 h
[1] = system: 786-0 renal
[2] = system: A498 renal
[3] = system: A549 NSCLC
[4] = system: ACHN renal
[5] = system: BT-549 breast
[6] = system: CAKI-1 renal
[7] = system: CCRF-CEM leukemia
[8] = system: COLO 205 colon
[9] = system: DU-145 prostate
[10] = system: EKVX NSCLC
[11] = system: HCC-2998 colon
[12] = system: HCT-116 colon
[13] = system: HCT-15 colon
[14] = system: HL-60(TB) leukemia
[15] = system: HOP-62 NSCLC
[16] = system: HOP-92 NSCLC
[17] = system: HS 578T breast
[18] = system: HT29 colon
[19] = system: IGROV1 ovarian
[20] = system: KM12 colon
[21] = system: LOX IMVI melanoma
[22] = system: M14 melanoma
[23] = system: MALME-3M melanoma
[24] = system: MCF7 breast
[25] = system: MDA-MB-231 breast
[26] = system: MDA-MB-435
[27] = system: MDA-N
[28] = system: MOLT-4 leukemia
[29] = system: NCI-H226 lung
[30] = system: NCI-H23 lung
[31] = system: NCI-H460 lung
[32] = system: NCI-H522 lung
[33] = system: NCI/ADR-RES ovarian
[34] = system: OVCAR-3 ovarian
[35] = system: OVCAR-4 ovarian
[36] = system: OVCAR-5 ovarian
[37] = system: OVCAR-8 ovarian
[38] = system: PC-3 prostate
[39] = system: RPMI-8226 leukemia
[40] = system: RXF 393 renal
[41] = system: SF-268 CNS
[42] = system: SF-295 CNS
[43] = system: SF-539 CNS
[44] = system: SK-MEL-2 melanoma
[45] = system: SK-MEL-28 melanoma
[46] = system: SK-MEL-5 melanoma
[47] = system: SK-OV-3 ovarian
[48] = system: SN12C renal
[49] = system: SNB-19 CNS
[50] = system: SNB-75 CNS
[51] = system: SR leukemia
[52] = system: SW-620 colon
[53] = system: T-47D breast
[54] = system: TK-10 renal
[55] = system: U251 CNS
[56] = system: UACC-257 melanoma
[57] = system: UACC-62 melanoma
[58] = system: UO-31 renal
[59] = system: K-562 leukemia

Q: For `Cc1ccc(/C=N/Nc2ccccn2)s1`, which TGI [1] is on record?
A: > 100 µM

Q: And the TGI [2]?
A: > 100 µM

Q: What about the TGI [3] of the same molecule?
A: > 100 µM

Q: What about the TGI [4] of the same molecule?
A: > 100 µM

Q: And the TGI [5]?
A: > 100 µM

Q: What about the TGI [6] of the same molecule?
A: > 100 µM

Q: And the TGI [7]?
A: > 100 µM

Q: What about the TGI [8] of the same molecule?
A: > 100 µM

Q: And the TGI [9]?
A: > 100 µM

Q: What about the TGI [10] of the same molecule?
A: > 100 µM

Q: And the TGI [11]?
A: > 100 µM

Q: And the TGI [12]?
A: > 100 µM

Q: And the TGI [13]?
A: > 100 µM

Q: And the TGI [14]?
A: > 100 µM

Q: And the TGI [15]?
A: > 100 µM

Q: What about the TGI [16] of the same molecule?
A: > 100 µM

Q: What about the TGI [17] of the same molecule?
A: > 100 µM

Q: What about the TGI [18] of the same molecule?
A: > 100 µM

Q: What about the TGI [19] of the same molecule?
A: > 100 µM

Q: And the TGI [20]?
A: > 100 µM

Q: What about the TGI [21] of the same molecule?
A: > 100 µM

Q: And the TGI [22]?
A: > 100 µM

Q: What about the TGI [23] of the same molecule?
A: > 100 µM

Q: And the TGI [24]?
A: > 100 µM

Q: And the TGI [25]?
A: > 100 µM

Q: And the TGI [26]?
A: > 100 µM

Q: And the TGI [27]?
A: > 100 µM

Q: What about the TGI [28] of the same molecule?
A: > 100 µM

Q: And the TGI [29]?
A: > 100 µM

Q: What about the TGI [30] of the same molecule?
A: > 100 µM

Q: What about the TGI [31] of the same molecule?
A: > 100 µM

Q: And the TGI [32]?
A: > 100 µM

Q: And the TGI [33]?
A: > 100 µM

Q: And the TGI [34]?
A: > 100 µM

Q: And the TGI [35]?
A: > 100 µM

Q: And the TGI [36]?
A: > 100 µM

Q: And the TGI [37]?
A: > 100 µM

Q: And the TGI [38]?
A: > 100 µM

Q: What about the TGI [39] of the same molecule?
A: > 100 µM

Q: What about the TGI [40] of the same molecule?
A: > 100 µM

Q: What about the TGI [41] of the same molecule?
A: > 100 µM

Q: And the TGI [42]?
A: > 100 µM

Q: What about the TGI [43] of the same molecule?
A: > 100 µM

Q: What about the TGI [44] of the same molecule?
A: > 100 µM

Q: What about the TGI [45] of the same molecule?
A: > 100 µM

Q: What about the TGI [46] of the same molecule?
A: > 100 µM

Q: And the TGI [47]?
A: > 100 µM

Q: What about the TGI [48] of the same molecule?
A: > 100 µM

Q: What about the TGI [49] of the same molecule?
A: > 100 µM

Q: What about the TGI [50] of the same molecule?
A: > 100 µM

Q: And the TGI [51]?
A: > 100 µM

Q: What about the TGI [52] of the same molecule?
A: > 100 µM

Q: What about the TGI [53] of the same molecule?
A: > 100 µM

Q: And the TGI [54]?
A: > 31.6 µM

Q: And the TGI [55]?
A: > 100 µM

Q: And the TGI [56]?
A: > 100 µM

Q: What about the TGI [57] of the same molecule?
A: > 100 µM

Q: And the TGI [58]?
A: > 100 µM

Q: What does the source list for `CCOC(=O)c1nc2cc(C(F)(F)F)ccc2nc1Nc1cc(OC)c(OC)c(OC)c1`?
A: TGI [1]: > 100 µM; TGI [2]: > 100 µM; TGI [3]: > 100 µM; TGI [4]: > 100 µM; TGI [5]: > 100 µM; TGI [6]: > 100 µM; TGI [7]: > 100 µM; TGI [8]: > 100 µM; TGI [9]: > 100 µM; TGI [10]: > 100 µM; TGI [11]: > 100 µM; TGI [12]: > 100 µM; TGI [13]: > 100 µM; TGI [14]: > 100 µM; TGI [15]: > 100 µM; TGI [16]: > 100 µM; TGI [17]: > 100 µM; TGI [18]: > 100 µM; TGI [19]: > 100 µM; TGI [59]: > 100 µM; TGI [20]: > 100 µM; TGI [21]: > 100 µM; TGI [22]: > 100 µM; TGI [23]: > 100 µM; TGI [24]: > 100 µM; TGI [25]: > 100 µM; TGI [26]: > 100 µM; TGI [27]: > 100 µM; TGI [28]: > 100 µM; TGI [29]: > 100 µM; TGI [30]: > 100 µM; TGI [31]: > 100 µM; TGI [32]: > 100 µM; TGI [33]: > 100 µM; TGI [34]: > 100 µM; TGI [36]: > 100 µM; TGI [37]: > 100 µM; TGI [38]: > 100 µM; TGI [39]: > 100 µM; TGI [40]: > 100 µM; TGI [41]: > 100 µM; TGI [42]: > 100 µM; TGI [43]: > 100 µM; TGI [45]: > 100 µM; TGI [46]: > 100 µM; TGI [47]: > 100 µM; TGI [48]: > 100 µM; TGI [49]: > 100 µM; TGI [50]: > 100 µM; TGI [51]: > 100 µM; TGI [52]: > 100 µM; TGI [53]: > 100 µM; TGI [54]: > 100 µM; TGI [55]: > 100 µM; TGI [56]: > 100 µM; TGI [57]: > 100 µM; TGI [58]: > 100 µM

Q: Which results are given for `CCC/C=C/C=C/C(=O)OC1C(C)C2(O)C3C=C(C)C(=O)C3CC(COC(C)=O)=CC2C2C(C)(C)C12OC(=O)C(C)C` (configuration not stated)?
A: TGI [1]: 23.1 µM; TGI [2]: 44.9 µM; TGI [3]: > 100 µM; TGI [4]: 39.3 µM; TGI [5]: 35.1 µM; TGI [6]: 33.9 µM; TGI [7]: 19.1 µM; TGI [8]: 9.18 µM; TGI [9]: > 100 µM; TGI [10]: 42.5 µM; TGI [11]: 14.7 µM; TGI [12]: 26.8 µM; TGI [14]: > 48.3 µM; TGI [15]: 0.0586 µM; TGI [16]: 27.2 µM; TGI [17]: 55.4 µM; TGI [18]: 25 µM; TGI [19]: 33.1 µM; TGI [59]: > 68.6 µM; TGI [20]: 32 µM; TGI [21]: 34.8 µM; TGI [22]: 27.7 µM; TGI [23]: 26.5 µM; TGI [24]: 32 µM; TGI [25]: 20.2 µM; TGI [26]: 18.3 µM; TGI [27]: 20.1 µM; TGI [28]: 16.2 µM; TGI [29]: 42.1 µM; TGI [30]: 26.9 µM; TGI [31]: > 83.7 µM; TGI [32]: 26.8 µM; TGI [33]: 47.3 µM; TGI [34]: 32.8 µM; TGI [35]: 57.6 µM; TGI [36]: 47.9 µM; TGI [37]: 55.8 µM; TGI [38]: 27.3 µM; TGI [39]: 52.5 µM; TGI [40]: 33.6 µM; TGI [41]: 28.4 µM; TGI [42]: 22.1 µM; TGI [43]: 25 µM; TGI [44]: 35.2 µM; TGI [45]: 26.1 µM; TGI [46]: 19.2 µM; TGI [47]: > 100 µM; TGI [48]: 23.5 µM; TGI [49]: 52.6 µM; TGI [50]: 36.1 µM; TGI [51]: 35.8 µM; TGI [52]: 20.4 µM; TGI [53]: 35.4 µM; TGI [54]: 47.1 µM; TGI [56]: 31.8 µM; TGI [57]: 16.3 µM; TGI [58]: 29.4 µM
